Like-named read-outs stand apart in the source and are kept apart here.

Assay [1] relates to LDL (low-density lipoprotein). As to the kind of experiment: LDL-antioxidant activity, Cu2+-induced LDL oxidation (TBARS method). It is filed as biochemical. To be noted: for LDL Oxidation Inhibitory Activity: sample concentration 100 μM; for IC50: read-out: LDL Oxidation Inhibitory Activity, IC50 value. The text has this:
Med. Chemn. Lett. 14: 2719-2723, 2004). Results thereof were shown in a following Table 9.

Assay [2] in a line: DPPH radical scavenging activity. To be noted: sample concentration 50 μM. The procedure: Two mL of a DPP solution was mixed in 1 mL of a test substance solution, after which a resulting mixture was stirred well. An optical density was measured at 517 nm at an interval of 1 minute for 20 minutes by using an UV/Vis spectrophotometer to evaluate the degree of DPPH radical scavenging activity.

The target in assay [3] is α-glucosidase (EC 3.2.1.20, Baker Yeast) (Saccharomyces cerevisiae, UniProt P53341). As to the kind of experiment: α-glucosidase inhibitory activity (nitrophenol method). It is filed as biochemical. The following applies: sample concentration 100 μM. The procedure:
Specifically, the α-glucosidase inhibitory activity was performed using the nitrophenol method as described by Kato, et al., (J. Med. Chem 48: 2036-2044, 2005) with slight modification. An accumulation amount was measured by the optical density of a chromophoric group of monosaccharides such as glucose, which was generated by hydrolysis of a substrate p-nitrophenyl-[…] (Sigma-Aldrich) by means of α-glucosidase (EC 3.2.1.20, Baker Yeast).
Fifty μl of a buffer solution (70 mM calcium phosphate, pH 6.8), 50 μl of a sample extract or a compound dissolved in 50% DMSO, and 50 μl of α-glucosidase (0.1 unit/ml) were injected into a 96-well plate (NUNC™ Co.) and a substrate (5 mM, p-nitrophenyl-α-D-glucopyranoside) was finally added therein, after which a resulting plate was reacted at 37° C. for 30 minutes, such that 2 M NaOH was added therein to finish a reaction thereof. An amount of a chromophoric group generated was measured at 405 nm by using a microplate reader (ANTHOS™ Co.) to calculate an inhibitory activity.

The target in assay [4] is T1, human recombinant DPP-IV (Homo sapiens, UniProt P27487).
T1 construct: purchased ProSpec
The experiment in a line: DPP-4 inhibitory activity (Ala-Pro-AFC substrate, fluorometer). It is filed as biochemical. The following applies: for inhibition at 200 µM: read-out: DPP-4 Inhibitory Activity (%); for DPP-4 Inhibitory Activity (%): 200 µM. The method, then:
Particularly, the black soybean (Seoritae) leaf extract (100 μg/ml) and the flavonol glycoside compound (200 μM) were dissolved in DMSO to prepare a sample solution. Then, 10 μl of a human recombinant DPP-IV (ProSpec, the U.S.) at a concentration of 1 μg/ml, 78 μl of an incubation buffer solution (50 mM Tris, pH 7.5), and 2 μl of the sample solution prepared above were added to a 96-well microplate, after which 16 μl (a final concentration reached 40 μM) of a substrate alanine-proline-7-amino-4-trifluoromethyl-coumarin (Ala-Pro-AFC) (Enzyme System Product Co.) was added therein, and initiated the reaction. After a reaction progressed at a room temperature for 60 minutes, an amount of AFC, which was a product generated, was measured by using a fluorometer, and identified DPP4 inhibitory activities of the black soybean (Seoritae) leaf extract and the flavonol glycoside compounds by means of Equation 1. […] DPP-4Inhibitory activity (%)=100−(A/A1×100) [Equation 1]
A: AFC concentration of sample
A1: AFC concentration of a negative control group

In assay [5] the test system is MIN6 β-cells. As to the kind of experiment: insulin secretion in 30 mM glucose-induced MIN6 β-cells (ELISA insulin kit). The following applies: for activation at 100 µM: Mus musculus, MIN6, 0.5 h, sample concentration 100 μM, read-out: Increase (%) in Insulin Secretion Amount in 30 mM Glucose-induced MIN6 Pancreatic β-Cells; for increase in amount of insulin secretion relative to its aglycone: 100 μM, Formula 4 vs quercetin, Formula 7 vs isorhamnetin. Type of assay: cell-based, mouse. The procedure: MIN6 β-cells, which is a mouse pancreatic. β-cell strain, was cultured in DMEM (Lonza Co.) containing 15% FBS (Gibco Co.), 100 units/ml penicillin, and 100 μg/ml streptomycin at 37° C. in a humid 5% CO2 incubator.
MIN6 cells were seeded into a 24-well plate (1×10^5 cells/well) and cultured at 37° C. in a humid 5% CO2 Incubator. In 48 hours later, the medium was first replaced with a DMEM without glucose contained therein, after which a resulting medium was left alone for 60 minutes, such that the black soybean (seoritae) leaf extract and the flavonol glycoside compounds, samples of the present invention, were treated at a certain concentration, into the DMEM with 30 mM glucose contained therein, thus being reacted for 30 minutes. A control group was one without a sample added therein under the same condition as described above, and the insulin secreted into the medium was measured by using an ELISA insulin kit (Alpco diagnostics). […]

In assay [6] the test system is RAW264.7 cells. The experiment in a line: ROS accumulation inhibitory activity in LPS-stimulated RAW264.7 cells (DCFH2-DA). It is filed as cell-based. The following applies: Mus musculus, sample concentration 100 μM, LPS 1 μg/ml. The method, then:
A test substance for each concentration was prepared with DMEM, after which the test substance was added by each 100 μL/well therein, thus being reacted for 2 hours. Then, the cells were stimulated for 18 hours with LPS (1 μg/ml) treatment, such that DCFH2-DA (2′,7′-dichlorofluorescein diacetate) was added therein at a final concentration of 15 μM, thus being reacted for 30 minutes. Once a reaction was finished, the cells were washed five times with PBS and which a fluorescence value of DCF was measured on a spectrofluorimeter (480/530, ex/em). (Hayakaya M. et. al., EMBO J., 22: 3356-3866, 2003).

α-glucosidase (EC 3.2.1.20, Baker Yeast), sequence (P53341 whole entry): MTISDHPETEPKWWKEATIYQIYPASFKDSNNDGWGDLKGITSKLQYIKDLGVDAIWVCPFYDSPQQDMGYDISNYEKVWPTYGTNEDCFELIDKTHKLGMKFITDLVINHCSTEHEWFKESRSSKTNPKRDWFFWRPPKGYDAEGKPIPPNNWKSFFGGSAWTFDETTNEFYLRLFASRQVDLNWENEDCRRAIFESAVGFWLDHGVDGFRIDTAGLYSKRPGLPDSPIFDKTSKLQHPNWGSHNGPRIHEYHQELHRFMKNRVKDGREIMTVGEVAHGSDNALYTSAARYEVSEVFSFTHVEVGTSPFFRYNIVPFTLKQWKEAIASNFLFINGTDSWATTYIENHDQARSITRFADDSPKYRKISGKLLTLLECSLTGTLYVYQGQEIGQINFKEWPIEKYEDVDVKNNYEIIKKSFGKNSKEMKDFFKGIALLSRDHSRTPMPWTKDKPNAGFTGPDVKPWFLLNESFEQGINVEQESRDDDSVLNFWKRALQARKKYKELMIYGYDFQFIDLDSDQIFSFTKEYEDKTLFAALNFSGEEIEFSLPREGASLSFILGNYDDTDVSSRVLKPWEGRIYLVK
T1 sequence (P27487 whole entry): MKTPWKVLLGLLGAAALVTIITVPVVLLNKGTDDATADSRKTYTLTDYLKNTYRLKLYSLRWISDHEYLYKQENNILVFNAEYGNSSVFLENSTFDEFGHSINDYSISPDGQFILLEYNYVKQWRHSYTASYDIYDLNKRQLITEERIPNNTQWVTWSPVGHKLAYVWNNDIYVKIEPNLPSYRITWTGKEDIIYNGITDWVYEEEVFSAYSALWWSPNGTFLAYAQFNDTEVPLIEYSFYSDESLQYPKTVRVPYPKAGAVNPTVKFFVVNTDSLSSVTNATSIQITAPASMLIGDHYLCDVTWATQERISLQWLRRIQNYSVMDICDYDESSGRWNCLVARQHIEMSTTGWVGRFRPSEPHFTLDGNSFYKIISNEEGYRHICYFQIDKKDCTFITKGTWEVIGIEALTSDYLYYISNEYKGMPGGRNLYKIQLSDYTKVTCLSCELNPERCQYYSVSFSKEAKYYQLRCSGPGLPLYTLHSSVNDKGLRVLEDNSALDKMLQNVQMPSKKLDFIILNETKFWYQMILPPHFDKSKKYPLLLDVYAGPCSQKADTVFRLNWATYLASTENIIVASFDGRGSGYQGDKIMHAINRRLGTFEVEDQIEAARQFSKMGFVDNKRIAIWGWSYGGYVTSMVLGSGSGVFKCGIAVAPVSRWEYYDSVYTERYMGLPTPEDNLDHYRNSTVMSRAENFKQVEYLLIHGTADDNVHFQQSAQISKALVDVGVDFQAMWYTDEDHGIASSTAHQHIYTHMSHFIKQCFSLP

As for `O=c1c(O[C@@H]2OC(CC[C@@H]3OC(O)[C@H](O)C(O)C3O)[C@H](O)C(O)C2O[C@@H]2OC(CO)[C@@H](O)C(O)C2O)c(-c2ccc(O)cc2)oc2cc(O)cc(O)c12` (some centres unmarked) [Comparative Example 2, reference compound], in assay [1], the “LDL Oxidation Inhibitory Activity” value turned out to be 28.4%. In addition, the “DPPH Radical Scavenging Activity” value in assay [2] is on record as 8.0 ± 0.7%.
As to `C[C@@H]1O[C@@H](OC[C@H]2O[C@@H](Oc3c(-c4ccc(O)c(O)c4)oc4cc(O)cc(O)c4c3=O)[C@H](O[C@@H]3O[C@H](CO)[C@@H](O)[C@H](O)[C@H]3O)[C@@H](O)[C@@H]2O)[C@H](O)[C@H](O)[C@H]1O` [Formula 2, quercetin 3-O-β-D-glucopyranosyl-(1→2)-[α-L-rhamnopyranosyl-(1→6)]-β-D-glucopyranoside], the values for the inhibition at 100 µM in assay [3] and in assay [6] were 8.7 ± 2% and 31.8 ± 1.7%, respectively. Moreover, in assay [4] (sample concentration 200 μM), the inhibition at 200 µM amounted to 42.2 ± 0.9%. Further, the activation at 100 µM in assay [5] stood at 25.3 ± 3.3%. Also, the IC50 (as a rule, the point on the concentration scale where inhibition reaches its midpoint) in assay [1] stood at 1900 nM. Moreover, the “DPPH Radical Scavenging Activity” value in assay [2] turned out to be 52.0 ± 0.1%.
For the compound `O=c1c(O[C@@H]2OC(CC[C@@H]3OC(O)[C@H](O)C(O)C3O)[C@H](O)C(O)C2O[C@@H]2OC(O)[C@H](O)C(O)C2O)c(-c2ccc(O)cc2)oc2cc(O)cc(O)c12` (some centres unmarked) [Comparative Example 3, reference compound], the activation at 100 µM in assay [5] was not above 19%. The “DPPH Radical Scavenging Activity” value in assay [2] is 4.0 ± 0.6%.
`O=c1c(O[C@@H]2OC(CO)[C@@H](O)C(O)C2O[C@@H]2OC(CO)[C@@H](O)C(O)C2O)c(-c2ccc(O)c(O)c2)oc2cc(O)cc(O)c12` (stereo partly drawn) [Formula 4, quercetin 3-O-(2-β-D-glucopyranosyl)-β-D-glucopyranoside] returned an inhibition at 100 µM in assay [3] of 23.4 ± 2.3%. Besides, the inhibition at 200 µM in assay [4] (sample concentration 200 μM) came out at 42.5 ± 1.5%. Moreover, in assay [5], the “increase in amount of insulin secretion relative to its aglycone” value is recorded as “twice” and the activation at 100 µM came to 63.6 ± 2.6%. Moreover, the IC50 in assay [1] was found to be 2300 nM. In assay [2], the “DPPH Radical Scavenging Activity” value was 59.5 ± 0.5%. This compound also gave an inhibition at 100 µM in assay [6] of 26 ± 1.9%.
`COc1cc(-c2oc3cc(O)cc(O)c3c(=O)c2O[C@@H]2OC(CO)[C@H](O)C(O)C2O[C@@H]2OC(CO)[C@@H](O)C(O)C2O)ccc1O` (stereo partly drawn) [Formula 6, isorhamnetin 3-O-(2-β-D-glucopyranosyl)-β-D-galactopyranoside]: the inhibition at 100 µM in assay [3] was 26.2 ± 1.7%; in assay [6] it was 58.8 ± 0.9%. For the same compound, the inhibition at 200 µM in assay [4] (sample concentration 200 μM) was found to be 39.4%. For the same compound, the activation at 100 µM in assay [5] was found to be 38.5 ± 3.3%. The “LDL Oxidation Inhibitory Activity” value in assay [1] is reported as 65.7%. The “DPPH Radical Scavenging Activity” value in assay [2] is recorded as 11.5 ± 0.5%.
Regarding `O=c1c(O)c(-c2ccc(O)c(O)c2)oc2cc(O)cc(O)c12` [Quercetin, reference compound], the “DPP-4 Inhibitory Activity (%)” value in assay [4] (sample concentration 200 μM) is 14.5 ± 1.5%; in assay [4] (sample concentration 200 μM, listed as quercetin), 145%. In addition, the activation at 100 µM in assay [5] was found to be 35.6 ± 3.4%.
Regarding `O=c1c(O)c(-c2ccc(O)cc2)oc2cc(O)cc(O)c12` [Kaempferol, reference compound], the activation at 100 µM in assay [5] is not above 19%.
As for `CC1O[C@@H](OC2C(O)[C@@H](O)C(CO)O[C@H]2Oc2c(-c3ccc(O)c(O)c3)oc3cc(O)cc(O)c3c2=O)C(O)C(O)[C@H]1O` (stereo partly drawn) [Formula 5, quercetin 3-O-(2-α-D-rhamnopyranosyl)-β-D-galactopyranoside], the inhibition at 100 µM was 17.6 ± 2.3% in assay [3] and 23.7 ± 1.4% in assay [6]. Besides, in assay [4], the inhibition at 200 µM came out at 48.7 ± 0.4%. Also, in assay [5], the activation at 100 µM was found to be 24.3 ± 2.7%. Besides, in assay [1], the IC50 was 400 nM. Further, the “DPPH Radical Scavenging Activity” value in assay [2] was found to be 85.9 ± 0.4%.
With `COc1cc(-c2oc3cc(O)cc(O)c3c(=O)c2O)ccc1O` [Isorhamnetin, reference compound], the inhibition at 200 µM in assay [4] (sample concentration 200 μM) amounted to 21.6%. Also, the activation at 100 µM in assay [5] is 26.6 ± 4.1%.
Turning to `C[C@@H]1O[C@@H](OC[C@H]2O[C@@H](Oc3c(-c4ccc(O)c(O)c4)oc4cc(O)cc(O)c4c3=O)[C@H](O[C@@H]3O[C@H](CO)[C@@H](O)[C@H](O)[C@H]3O)[C@@H](O)[C@H]2O)[C@H](O)[C@H](O)[C@H]1O` [Formula 1, quercetin 3-O-β-D-glucopyranosyl-(1→2)-[α-L-rhamnopyranosyl-(1→6)]-β-D-galactopyranoside], the inhibition at 100 µM was 10.8 ± 0.8% in assay [3] and 37.3 ± 1.8% in assay [6]. The inhibition at 200 µM in assay [4] (sample concentration 200 μM) came to 48.4 ± 1%. Moreover, in assay [5], the activation at 100 µM was determined as 2.1 ± 0.1%. Also, in assay [1], the IC50 turned out to be 1800 nM. The “DPPH Radical Scavenging Activity” value in assay [2] stood at 60.3 ± 1.4%.
On to `O=c1c(-c2ccc(O)cc2)coc2cc(O[C@@H]3O[C@H](CO)[C@@H](O)[C@H](O)[C@H]3O)cc(O)c12` [Comparative Example 4, Genistin, reference compound], for which, in assay [1], the “LDL Oxidation Inhibitory Activity” value is 41.3%. The “DPPH Radical Scavenging Activity” value in assay [2] is given as 3.4 ± 0.7%.
On to `O=c1c(O[C@@H]2OC(CO)[C@H](O)C(O)C2O[C@@H]2OC(CO)[C@@H](O)C(O)C2O)c(-c2ccc(O)c(O)c2)oc2cc(O)cc(O)c12` (stereo partly drawn) [Formula 3, quercetin 3-O-(2-β-D-glucopyranosyl)-β-D-galactopyranoside], for which the inhibition at 100 µM in assay [3] is 63.9 ± 0.2%; in assay [6], 44.1 ± 2.8%. Besides, the inhibition at 200 µM in assay [4] (sample concentration 200 μM) worked out at 46.7 ± 1.5%. Besides, in assay [5], the activation at 100 µM is 37.8 ± 5.4%. Besides, in assay [1], the concentration for half-maximal inhibition (IC50) was 2100 nM. Further, the “DPPH Radical Scavenging Activity” value in assay [2] is recorded as 64.8 ± 0.9%.
In assay [3], `COc1cc(-c2oc3cc(O)cc(O)c3c(=O)c2O[C@@H]2OC(CO)[C@H](O)C(O)C2O[C@@H]2OC(C)[C@H](O)C(O)C2O)ccc1O` (stereo partly drawn) [Formula 7, isorhamnetin 3-O-α-L-rhamnopyranosyl-(1→2)-β-D-galactopyranoside] came in with an inhibition at 100 µM of 22.7 ± 0.9%. Also, in assay [4] (sample concentration 200 μM), the inhibition at 200 µM was 48.1%. Besides, in assay [5], the “increase in amount of insulin secretion relative to its aglycone” value is listed as “four” and the activation at 100 µM stood at 106 ± 5.1%. Also, the “LDL Oxidation Inhibitory Activity” value in assay [1] worked out at 55.7%. Further, the “DPPH Radical Scavenging Activity” value in assay [2] was 7.5 ± 0.6%. In assay [6], this compound displayed an inhibition at 100 µM of 21.9 ± 0.6%.

Values taken from patent US10765128B2, “Composition for prevention or treatment of metabolic syndrome or for antioxidation containing black bean leaf extracts and flavonol glysosides isolated therefrom as active ingredients” (KOREA RESEARCH INSTITUTE OF BIOSCIENCE AND BIOTECHNOLOGY, priority 2015, dated 2020).
